The subject of one assay is Aquifex aeolicus. The assay is described as follows: Inhibition of [3H]leucine transport activity of LeuT in proteoliposomes by scintillation proximity assay. (Scintillation proximity formats need no separation of bound from free tracer.)
Assay [1] in a line: Displacement of [3H]leucine from Aquifex aeolicus His-LeuT expressed in Escherichia coli by scintillation proximity assay. A general note: In a radioligand displacement assay an active substance lowers the binding of a labelled ligand.

We go through four compounds from ChEMBL document CHEMBL1143765 (Science, 2007).

Calls of active or inactive are those of the source. No cut-off for these calls is given here.

What is called IC50 is the midpoint of a concentration-inhibition curve. `CNCCCN1c2ccccc2CCc2ccccc21` [DESIPRAMINE]: in the assay on Aquifex aeolicus, the result was Active. The compound also came in with an IC50 in assay [1] of 80 µM. In turn, `CNCCC(Oc1ccc(C(F)(F)F)cc1)c1ccccc1` (stereo not given) [FLUOXETINE] gave an IC50 in assay [1] of 858 µM. `CN(C)CCCN1c2ccccc2CCc2ccccc21` [IMIPRAMINE] had an IC50 in assay [1] of 244 µM.

As for `CNCCC=C1c2ccccc2CCc2ccccc21` [NORTRIPTYLINE], in assay [1], the IC50 stood at 75 µM.
